Data set [1] is described as follows: Retention time of the compound by RP-HPLC analysis. Format: physicochemical.
The nature of data set [2]: Kinetic solubility of compound in phosphate buffer at pH 7.4 by UV analysis. Format: physicochemical. The settings on record: read-out: Kinetic_solubility.
A short description of data set [3]: Apparent membrane permeability of the compound in PBS buffer at pH 7.4 measured after 24 hrs by PAMPA assay. Format: ADME.
The nature of data set [4]: Octanol/buffer partition coefficient, logD of the compound at pH 7.4 incubated for 24 hrs by shake flask method based UV analysis. Format: physicochemical.
Data set [5] in a line: Kinetic solubility of the compound by RP-HPLC analysis.

≈ marks a conversion by molar mass, not a printed value. Where a SMILES comes first, the peptide text is derived from it. Bridges are numbered along the chain shown (N, C = ends).

Turning to `CSCC[C@@H]1NC(=O)[C@H](CC(=O)O)NC(=O)[C@H](Cc2ccccc2)NC(=O)[C@H](CCCNC(=N)N)NC(=O)[C@H](Cc2ccc(O)cc2)NC(=O)[C@H](CC(=O)O)NC(=O)[C@H](CCCNC(=N)N)NC(=O)[C@H](CCCNC(=N)N)NC(=O)[C@H](C)NC(=O)[C@@H](NC(=O)[C@H](Cc2c[nH]c3ccccc23)NC(=O)[C@@H](N)CCCNC(=N)N)CSSC[C@@H](C(=O)N[C@@H](Cc2c[nH]c3ccccc23)C(=O)N[C@@H](CCC(=O)O)C(=O)O)NC(=O)[C@H](Cc2c[nH]c3ccccc23)NC(=O)[C@H](Cc2ccc(O)cc2)NC(=O)[C@H](CC(=O)O)NC(=O)[C@H](Cc2ccccc2)NC(=O)CNC1=O` (H-RWCARRDYRFDMGFDYWCWE-OH; disulfide 3-18), the Retention_time in data set [1] is listed as 22 min. Further, in data set [2], the solubility kinetic was 10 µM (≈ 27.6 µg/mL). Besides, the apparent permeability coefficient (Papp) at 24 h in data set [3] was 3.71 ×10⁻⁶ cm/s. In data set [4], this molecule came in with a logD at 24 h of -0.6.

In data set [1], H-RWVARRDYRGDMGFDYWHWE-OH came in with a Retention_time of 20.3 min. Moreover, the solubility kinetic in data set [2] was 40 µM. Besides, the Papp at 24 h in data set [3] was 0.07 ×10⁻⁶ cm/s. This molecule registered a logD at 24 h in data set [4] of 0.7.

H-RWVARRDYRFDMGFDYWVWE-OH displayed a Retention_time in data set [1] of 23.1 min. Further, in data set [2], the solubility kinetic came out at 10 µM. In addition, the apparent permeability (Papp) at 24 h in data set [3] came to 2.18 ×10⁻⁶ cm/s. Also, the pH-dependent lipophilicity (logD) at 24 h in data set [4] is 0.2.

Molecule H-RWVAREGMNTDGYFDYWHWE-OH displayed a Retention_time in data set [1] of 21.1 min. For the same molecule, the solubility kinetic in data set [2] was 690 µM. Moreover, the Papp at 24 h in data set [3] is 0.02 ×10⁻⁶ cm/s. Further, the logD at 24 h in data set [4] worked out at 0.3.

With H-RWVWRDYRGDMGFDWVWE-OH, in data set [1], the Retention_time turned out to be 23.3 min. Also, in data set [2], the solubility kinetic came to 20 µM. Besides, the Papp at 24 h in data set [3] stood at 0.01 ×10⁻⁶ cm/s. Besides, the pH-dependent lipophilicity (logD) at 24 h in data set [4] is 0.9.

H-RGVARRDYRGDPGFDYWHWE-OH gave a Retention_time in data set [1] of 18.8 min. Also, the solubility kinetic in data set [2] is 18000 µM. Also, in data set [3], the Papp at 24 h was 0.26 ×10⁻⁶ cm/s. The same molecule had a pH-dependent lipophilicity (logD) at 24 h in data set [4] of -1.9.

In data set [1], H-RWVARRDYRGDMGFDYWVWE-OH had a Retention_time of 21.5 min. Moreover, the solubility kinetic in data set [2] was determined as 20 µM. Also, in data set [3], the Papp at 24 h came out at 1.59 ×10⁻⁶ cm/s. The molecule also had a logD at 24 h in data set [4] of 0.6.

As to H-RWVKRRDYRFDMGFDYWVWE-OH, the solubility kinetic in data set [2] was determined as 20 µM. Also, the Papp at 24 h in data set [3] stood at 0.14 ×10⁻⁶ cm/s. In addition, the logD at 24 h in data set [4] is -0.4. In addition, in data set [5], the kinetic solubility turned out to be 21900 µM.

Regarding H-RWVARRDYRFDMGFDYWHWE-OH, the Retention_time in data set [1] came to 21.8 min. The solubility kinetic in data set [2] was 10 µM. In addition, the Papp at 24 h in data set [3] worked out at 2.55 ×10⁻⁶ cm/s. For the same molecule, the log distribution coefficient (logD) at 24 h in data set [4] is -0.5.

Consider H-RWVWSPDSSGVAYWVWE-OH, for which the Retention_time in data set [1] worked out at 22.8 min. For the same molecule, the solubility kinetic in data set [2] is 530 µM. Further, the Papp at 24 h in data set [3] was determined as 0.09 ×10⁻⁶ cm/s. The logD at 24 h in data set [4] is 0.9.

H-RWVKRRDYRGDMGFDYWVWE-OH showed a Retention_time in data set [1] of 19.5 min. Also, the solubility kinetic in data set [2] turned out to be 1800 µM. In data set [3], the Papp at 24 h was 0.02 ×10⁻⁶ cm/s. In data set [4], this molecule displayed a logD at 24 h of -1.3.

Turning to H-RWVVRRDYRFDMGFDYWVWE-OH, in data set [1], the Retention_time was determined as 23 min. For the same molecule, the solubility kinetic in data set [2] was 20 µM. Besides, the apparent permeability (Papp) at 24 h in data set [3] came out at 2.61 ×10⁻⁶ cm/s. The molecule further displayed a logD at 24 h in data set [4] of -1.1.

On to `CC(=O)CC(c1ccccc1)c1c(O)c2ccccc2oc1=O` (stereo not given) [WARFARIN], for which, in data set [3], the apparent permeability coefficient (Papp) at 24 h is 7.06 ×10⁻⁶ cm/s.

Molecule H-RWVARRDYRFDMGFNYWVWE-OH returned a Retention_time in data set [1] of 22.6 min. Moreover, the solubility kinetic in data set [2] was found to be 50 µM. In addition, the apparent permeability (Papp) at 24 h in data set [3] came out at 4.04 ×10⁻⁶ cm/s. In addition, the logD at 24 h in data set [4] stood at 0.7.

Molecule H-RWVVRRDYRGDMGFDYWVWE-OH registered a Retention time in data set [1] of 20.6 min. Moreover, the solubility kinetic in data set [2] is 30 µM. Further, in data set [3], the Papp at 24 h was found to be 0.04 ×10⁻⁶ cm/s. The molecule further came in with a logD at 24 h in data set [4] of -0.9.

Consider H-RWVARAYGNYWYIDVWHWE-OH, for which, in data set [1], the Retention_time came out at 24.1 min. The solubility kinetic in data set [2] came to 2 µM. Besides, in data set [3], the Papp at 24 h was 4.15 ×10⁻⁶ cm/s. This molecule also gave a pH-dependent lipophilicity (logD) at 24 h in data set [4] of 0.6.

H-RWVWRDLDIATTRDYWVWE-OH came in with a Retention_time in data set [1] of 23.2 min. The solubility kinetic in data set [2] came to 140 µM. The Papp at 24 h in data set [3] is 0.2 ×10⁻⁶ cm/s. In data set [4], the pH-dependent lipophilicity (logD) at 24 h turned out to be 0.8.

H-RWVWRDYRFDMGFDWVWE-OH gave a Retention_time in data set [1] of 25.2 min. For the same molecule, in data set [2], the solubility kinetic came to 20 µM. Also, the apparent permeability coefficient (Papp) at 24 h in data set [3] was determined as 5.28 ×10⁻⁶ cm/s. The molecule also displayed a logD at 24 h in data set [4] of 0.1.

Molecule H-RWVARAYGNYGYIDVWHWE-OH displayed a Retention_time in data set [1] of 21.9 min. Moreover, in data set [2], the solubility kinetic stood at 70 µM. Besides, the Papp at 24 h in data set [3] was 0.38 ×10⁻⁶ cm/s. In data set [4], this molecule returned a logD at 24 h of -1.3.

Turning to H-RWVARRDYRGDMGFNYWVWE-OH, the Retention_time in data set [1] was 20.9 min. Also, the solubility kinetic in data set [2] is 60 µM. The apparent permeability (Papp) at 24 h in data set [3] worked out at 0.02 ×10⁻⁶ cm/s. Also, in data set [4], the logD at 24 h was -0.8.

In data set [1], H-RWVAREGGWFGELAFNYWVWE-OH came in with a Retention_time of 21.2 min. Further, in data set [2], the solubility kinetic came out at 260 µM. Further, the Papp at 24 h in data set [3] was found to be 2.05 ×10⁻⁶ cm/s. The molecule also yielded a logD at 24 h in data set [4] of -0.5.

H-RWVAREGMNTDWYFDYWHWE-OH yielded a Retention_time in data set [1] of 23.3 min. Moreover, the solubility kinetic in data set [2] came to 20 µM. Further, the Papp at 24 h in data set [3] came to 0.42 ×10⁻⁶ cm/s. Further, the logD at 24 h in data set [4] came to 1.2.

(Values after ChEMBL document CHEMBL5257058, “Passive Membrane Permeability of Sizable Acyclic β-Hairpin Peptides” (ACS Med Chem Lett, 2023).)
